Experimental data: patent US20260308172A1, “TRICYCLIC COMPOUNDS FOR TREATMENT OF BACTERIAL INFECTIONS” (priority 2023, published 2026)
In brackets after ≈: the same amount, converted by molar mass.

Columns and labels:
[1] = test system: Escherichia coli ATCC 25922; assay: Minimal Inhibitory Concentration (MIC) assay, Escherichia coli ATCC 25922; format: cell-based; conditions: ATCC25922, 20 h, read-out: MIC Escherichia coli ATCC25922
Outline: (§1)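 Broth microdilution in cation-adjusted Mueller Hinton broth with 2-fold serial compound dilutions, inoculum 5×10^5 CFU/mL. Plates incubated 20 h at 35 °C in ambient air. MIC (μg/mL) is the lowest concentration preventing visible growth; K. pneumoniae 43816 is a rifampin-resistant mutant.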

[2] = test system: Klebsiella pneumonia ATCC 43816; assay: Minimal Inhibitory Concentration (MIC) assay, Klebsiella pneumonia ATCC 43816; format: cell-based; conditions: Klebsiella pneumoniae, ATCC43816, 20 h, read-out: MIC Klebsiella pneumoniae ATCC43816
Outline: as §1

[3] = Human Microsome Stability Assay; format: in vitro ADME; conditions: 1 μM compound, 0.5 mg/mL liver microsomal protein, 1 mM NADPH, pH 7.4, 37° C., 0-30 minutes; for CLint scaled at 1 µM: human, liver microsomes, read-out: Clearance of Human microsome
Description: The human microsomal stability assay is used for early assessment of metabolic stability of compounds of present invention in human liver microsomes. Human liver microsomes (Cat. NO.: 452117, Corning, USA) were pre-incubated with test compound for 10 minutes at 37° C. in 100 mM potassium phosphate buffer, pH 7.4. The reactions were initiated by adding NADPH regenerating system. The final incubation mixtures contained 1 μM compound, 0.5 mg/mL liver microsomal protein, 1 mM MgCl2 and 1 mM NADPH in 100 mM potassium phosphate buffer, pH 7.4. After incubation times of 0, 3, 6, 9, 15 and 30 minutes at 37° C., 300 μL of cold acetonitrile (including internal standard) was added to 100 μL incubation mixture to terminate the reaction. Following precipitation and centrifugation, the amount of compound remaining in the samples were determined by LC-MS/MS. Controls of no NADPH regenerating system at zero and 30 minutes were also prepared and analyzed.

[4] = test system: efflux-deficient E. coli strains; conditions: in words; Bioorganic Chemistry 102 (2020) 104055; cited from earlier work
[5] = test system: LPS synthesis pathway; conditions: in words; Bioorganic Chemistry 102 (2020) 104055; cited from earlier work

Row | SMILES | MIC [1] | MIC [2] | CLint scaled at 1 µM [3] | antibiotic activity against efflux-deficient E. coli strains [4] | LPS synthesis pathway inhibition activity [5] | Clearance of Human microsome [3]
1 | CC(=O)N1CCc2cc(S(=O)(=O)N3CCN(c4cc(Cl)cc(C(F)(F)F)c4)CC3)ccc21 [Compound F-1, reference compound] | > 24 µg/mL | > 24 µg/mL | 14 mL/min/kg | displaying antibiotic activity against efflux-deficient E. coli strains | having LPS synthesis pathway inhibition activity | –
2 | NCCN1CCC(C(F)(F)c2cc(Cl)nc(N3CCN(S(=O)(=O)c4ccc5c(c4)OC[C@@H]4[C@H](CO)OC(=O)N54)CC3)c2)CC1 [Example 055, (3R,3aR)-7-[4-[4-[[1-(2-aminoethyl)-4-piperidyl]-difluoro-methyl]-6-chloro-2-pyridyl]piperazin-1-yl]sulfonyl-3-(hydroxymethyl)-3a,4-dihydro-3H-oxazolo[4,3-c][1,4]benzoxazin-1-one] | 0.3 µg/mL (≈ 0.457 µM) | 0.3 µg/mL (≈ 0.457 µM) | 7.8 mL/min/kg | – | – | –
3 | Cc1cc(C(F)(F)F)nc(N2CCN(S(=O)(=O)c3ccc4c(c3)OC[C@H]3[C@@H](CN5CC(N)C5)OC(=O)N43)CC2)n1 [Example 025, (3R,3aS)-3-[(3-aminoazetidin-1-yl)methyl]-7-[4-[4-methyl-6-(trifluoromethyl)pyrimidin-2-yl]piperazin-1-yl]sulfonyl-3a,4-dihydro-3H-oxazolo[4,3-c][1,4]benzoxazin-1-one] | 0.91 µg/mL (≈ 1.56 µM) | 1.82 µg/mL (≈ 3.12 µM) | 12.2 mL/min/kg | – | – | –
4 | C[N@+]1(CC(N)=O)CCC[C@H]1C(=O)N[C@H]1CC[C@H](C(F)(F)c2cc(Cl)nc(N3CCN(S(=O)(=O)c4ccc5c(c4)OC[C@@H]4[C@H](CN)OC(=O)N54)CC3)c2)CC1 [Example 061, (1R,2S)—N-[4-[[2-[4-[[(3S,3aR)-3-(aminomethyl)-1-oxo-3a,4-dihydro-3H-oxazolo[4,3-c][1,4]benzoxazin-7-yl]sulfonyl]piperazin-1-yl]-6-chloro-4-pyridyl]-difluoro-methyl]cyclohexyl]-1-(2-amino-2-oxo-ethyl)-1-methyl-pyrrolidin-1-ium-2-carboxamide;chloride] | 0.68 µg/mL | 0.34 µg/mL | – | – | – | 6.2 mL/min/kg
5 | NCCCNC(=O)[C@H]1CC[C@H](C(F)(F)c2cc(Cl)nc(N3CCN(S(=O)(=O)c4ccc5c(c4)OCC4C(N)CC(=O)N54)CC3)c2)CC1 (some centres unmarked) [Example 045, 4-[[2-[4-[(3-Amino-1-oxo-2,3,3a,4-tetrahydropyrrolo[2,1-c][1,4]benzoxazin-7-yl)sulfonyl]piperazin-1-yl]-6-chloro-4-pyridyl]-difluoro-methyl]-N-(3-aminopropyl)cyclohexanecarboxamide] | 0.63 µg/mL (≈ 0.905 µM) | 0.63 µg/mL (≈ 0.905 µM) | 8.9 mL/min/kg | – | – | –
6 | NCCCNC(=O)[C@H]1CC[C@H](C(F)(F)c2cc(Cl)nc(N3CCN(S(=O)(=O)c4ccc5c(c4)OC[C@@H]4[C@H](CO)OC(=O)N54)CC3)c2)CC1 [Example 046, 4-[[2-[4-[[(3R,3aR)-3-(hydroxymethyl)-1-oxo-3a,4-dihydro-3H-oxazolo[4,3-c][1,4]benzoxazin-7-yl]sulfonyl]piperazin-1-yl]-6-chloro-4-pyridyl]-difluoro-methyl]-N-(3-aminopropyl)cyclohexanecarboxamide] | 0.32 µg/mL (≈ 0.449 µM) | 0.32 µg/mL (≈ 0.449 µM) | – | – | – | 6.2 mL/min/kg
7 | O=C1O[C@@H](CO)[C@H]2COc3cc(S(=O)(=O)N4CCN(c5cc(C(F)(F)C6CCNCC6)cc(Cl)n5)CC4)ccc3N12 [Example 028, (3R,3aR)-7-[4-[6-chloro-4-[difluoro(4-piperidyl)methyl]-2-pyridyl]piperazin-1-yl]sulfonyl-3-(hydroxymethyl)-3a,4-dihydro-3H-oxazolo[4,3-c][1,4]benzoxazin-1-one] | 0.57 µg/mL (≈ 0.928 µM) | 0.57 µg/mL (≈ 0.928 µM) | 10.5 mL/min/kg | – | – | –
8 | O=C1O[C@H](CO)[C@@H]2COc3cc(S(=O)(=O)N4CCN(c5cc(C(F)(F)C6CCCNC6)cc(Cl)n5)CC4)ccc3N12 (relative stereo) [Example 033] | 1 µg/mL (≈ 1.63 µM) | 1.55 µg/mL (≈ 2.52 µM) | 13.6 mL/min/kg | – | – | –
9 | NCC(=O)NCC(=O)N1CCC(C(F)(F)c2cc(Cl)nc(N3CCN(S(=O)(=O)c4ccc5c(c4)OC[C@@H]4[C@H](CO)OC(=O)N54)CC3)c2)CC1 [Example 057, N-[2-[4-[[2-[4-[[(3R,3aR)-3-(hydroxymethyl)-1-oxo-3a,4-dihydro-3H-oxazolo[4,3-c][1,4]benzoxazin-7-yl]sulfonyl]piperazin-1-yl]-6-chloro-4-pyridyl]-difluoro-methyl]-1-piperidyl]-2-oxo-ethyl]-2-amino-acetamide] | 0.66 µg/mL (≈ 0.906 µM) | 0.66 µg/mL (≈ 0.906 µM) | 11.3 mL/min/kg | – | – | –
10 | NCCC(=O)NC1CCC(Oc2cc(Cl)nc(N3CCN(S(=O)(=O)c4ccc5c(c4)OC[C@H]4[C@H](CO)OC(=O)N54)CC3)c2)CC1 (stereo partly drawn) [Example 051, N-[4-[[2-[4-[[(3R,3aS)-3-(hydroxymethyl)-1-oxo-3a,4-dihydro-3H-oxazolo[4,3-c][1,4]benzoxazin-7-yl]sulfonyl]piperazin-1-yl]-6-chloro-4-pyridyl]oxy]cyclohexyl]-3-amino-propanamide] | 3.7 µg/mL (≈ 5.56 µM) | 3.65 µg/mL (≈ 5.49 µM) | 13.1 mL/min/kg | – | – | –
